The text below walks through data of patent publication US7718385B2, “Bioactivation of alkylating agents for cancer treatment” (priority 2003, dated 2010).

Like-named read-outs stand apart in the source and are kept apart here.

The target in one data set is T1, recombinant AOR (Rattus norvegicus, UniProt P97584, Q160G/Q263G/Q264G/Q276G).
T1 construct: made in house
Briefly: LC/MS/MS of enzymatic and nonenzymatic GSH adducts. In kind it is biochemical. As for the experimental part:
High Performance Liquid Chromatography with Tandem Mass Spectrometry (LC/MS/MS) of GSA Adducts. […] These reactions were incubated at 37° C. for 1 h. Controls lacking NAFPH were performed. Reactions were stopped and deproteinized with addition of 400 μl of ice-cold acetonitrile, spun at 3500×g for 10 min at 4° C., and the supernatants were evaporated to dryness under vacuum. Residual GSH and NADPH cofactors were removed using an Oasis C18 sample prep column (Waters Chromatography). Adducts were eluted with methanol, evaporated to dryness under vacuum, resuspended in […] of 0.1% acetic acid, and detected using liquid chromatography electrospray ionization tandem mass spectrometry performed in the positive ion mode. […] A flow rate of 0.1 ml/min and gradient of 0% buffer D (70% acetic acid (0.1%):30% acetonitrile) to 100% buffer E (20% acetic acid (0.1%):80% acetonitrile) over 30 min were used to resolve the compounds. Adducts were detected by monitoring for selected molecular ions or characteristic molecular fragments after MS/MS. Molecular fragments were obtained with 35% relative collusion energy.
Measuring GSH adduction is a commonly used technique for estimating covalent protein binding, and thus cytotoxicity, of a drug (Baillie and Kassahun, 2001). The nucleophilic thiol moiety of GSH effectively scavenges electrophilic molecules and its large size and charge prevent it from entering the active site of most enzymes. […] Daughter ions of adducts, which represent the loss of water (−18 m/z) or […] (−129 m/z), were common and monitored for in these experiments following MS/MS.
Enzymatic reduction occurred in incubations containing recombinant AOR, NADPH, and GSH, while companion nonenzymatic reductions lacked NADPH. […] However the NE irofulven-GSH adduct (FIG. 5B) was detected only after monitoring for a daughter ion (M+—H2)=536 m/z) and was 42-fold less abundant than the E adduct. […] Contrary to findings with irofulven, a great deal of NE illudin M-GSH adduct was detected in NADPH-deficient incubations.

The next data set addresses recombinant rat AOR (Rattus norvegicus, UniProt P97584, Q160G/Q263G/Q264G/Q276G).

recombinant rat AOR, sequence (P97584 whole entry Q160G/Q263G/Q264G/Q276G): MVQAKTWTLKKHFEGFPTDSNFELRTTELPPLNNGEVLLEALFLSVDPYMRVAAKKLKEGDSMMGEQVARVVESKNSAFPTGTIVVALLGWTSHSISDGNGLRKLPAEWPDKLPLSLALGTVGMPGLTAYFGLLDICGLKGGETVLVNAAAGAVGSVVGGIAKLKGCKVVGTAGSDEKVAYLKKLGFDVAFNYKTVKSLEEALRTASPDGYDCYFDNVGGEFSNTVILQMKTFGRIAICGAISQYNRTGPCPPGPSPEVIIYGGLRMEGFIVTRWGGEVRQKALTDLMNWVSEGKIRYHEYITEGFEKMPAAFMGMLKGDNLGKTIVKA
T1 sequence (P97584 whole entry Q160G/Q263G/Q264G/Q276G): as above
Description for recombinant rat AOR: Varied concentrations of illudin M were added to a 200 μl 0.5× phosphate buffered saline (PBS) solution containing 115 ng of AOR and 43.4 nmoles NADPH, and incubated for 1 minute at 37° C. Reactions were then extracted with ethyl acetate containing piperine (internal standard), dried under vacuum, resuspended in HPLC buffer A (60% acetonitrile: 40% water), and injected into a Hewlett-Packard 1050 HPLC system equipped with a Luna C18 column (Phenomenex Inc.). Metabolites were separated using buffer A at a flow rate of 1 ml/min and quantified using diode array detection at 205 nm and previously reported extinction coefficients (Tanaka, et al., 1990). Vmax and Km were calculated using the HYPER program.
Rates were quantified from metabolite peak areas using reported extinction coefficients (Tanaka, et al., 1990; McMorris, et al., 1999).

With `CC1=C2C(=CC(C)(C)[C@@H]2O)C(=O)[C@](C)(O)C12CC2` [Illudin M], the “NE GSH adduct detected” value at recombinant AOR (NADPH-deficient incubations) is listed as “a great deal”. In addition, the “abundance of E (enzymatic) GSH adduct over NE (nonenzymatic) adduct” value on recombinant AOR (incubations with AOR, GSH and NADPH, 1 h, 37° C.) turned out to be 14 fold. Besides, at recombinant rat AOR, the Km was determined as 109 µM and the “maximal rate of metabolism by AOR” value amounted to 44.1 µmol/min/mg. Besides, on recombinant rat AOR (formation of Product 3), the Km came to 109 µM and the Vmax is 29,200 nmol/min/mg. Besides, on recombinant rat AOR (formation of Product 4), the Km was 113 µM and the Vmax is reported as 14,900 nmol/min/mg. In addition, in the data set on 293 cells (read-out: LC50 (concentration required to produce 50 percent lethality), 293 cells, 24 h, MTT assay), the CC50 was around 1000 nM.
With `CC1=C2C(=C[C@@](C)(CO)[C@@H]2O)C(=O)[C@](C)(O)C12CC2` [Illudin S], the results for the Km at recombinant rat AOR, at recombinant rat AOR (formation of Product 5) and at recombinant rat AOR (formation of Product 6) were 308 µM, 486 µM and 308 µM, respectively. In addition, on recombinant rat AOR, the “maximal rate of metabolism by AOR” value was found to be 115.9 µmol/min/mg. In addition, the Vmax is 65,400 nmol/min/mg on recombinant rat AOR (formation of Product 5) and 50,500 nmol/min/mg at recombinant rat AOR (formation of Product 6).
For the compound `O=c1oc2ccccc2c(O)c1Cc1c(O)c2ccccc2oc1=O` [dicumarol, Dicumarol], the “effect on AOR-mediated activation of irofulven” value with 293 cells is “attenuated partially”. Moreover, in the data set with 293 cells (100 μM, alone), the “effect on cell growth” value was “no effect on cell growth”.
